# Laboratory results reported in paper PMC7143969, “Simultaneous Determination of α-Glucosidase Inhibitory Triterpenoids in Psidium guajava Using HPLC–DAD–ELSD and Pressurized Liquid Extraction” (Molecules, 2020).
# Molecular target: α-glucosidase (Saccharomyces cerevisiae, UniProt P53341)
# Experiment: Inhibition assay of α-glucosidase activity (p-nitrophenyl α-D-glucopyranoside substrate, absorbance at 405 nm)
# Assay type: biochemical
# Settings: Mean ± SE, phosphate buffer pH 6.8, 37 °C, 30 min, NI: No Inhibition
# Protocol: Methanol and formic acid (HPLC grade) were purchased from Merck (Darmstadt, Germany). The ultra-pure water was purified using a Millipore Milli Q-Plus system (Millipore, Bedford, MA, USA). The α-glucosidase and p-nitrophenyl α-D-glucopyranoside were purchased from Sigma (St. Louis, USA). The enzymatic reaction results were detected on a SpectraMax M5 (Molecular Devices, San Jose, CA, USA).
# The inhibition assay of α-glucosidase was measured by the method as described previously. Briefly, a total volume of 150 µL solution consisting of 100 µL phosphate buffer (0.1 M, pH 6.8), 20 µL α-glucosidase (2.4 unit/mg), 20 µL p-nitrophenyl α-D-glucopyranoside and 10 µL different concentration of test sample (12.5–500 µg/mL), was incubated for 30 min under the temperature of 37 °C, then the reaction was stopped by adding 80 µL 0.1 mM Na2CO3. The results were detected under the wavelength of 405 nm on a SpectraMax M5 (Molecular Devices, San Jose, CA, USA). The controlled sample used solvent instead of triterpenoids and the blank sample used buffer instead of α-glucosidase, respectively. The inhibition activity α-glucosidase was calculated by the following equation:Inhibition (%) = [1 − (As − Asb)/(Ac − Acb)] × 100%(2)
# Herein, As, Asb, Ac and Acb are absorption of the test sample, sample blank, control and control blank, respectively. Their half maximal inhibitory concentration (IC50) were calculated and compared.
# Chain of α-glucosidase (P53341 whole entry): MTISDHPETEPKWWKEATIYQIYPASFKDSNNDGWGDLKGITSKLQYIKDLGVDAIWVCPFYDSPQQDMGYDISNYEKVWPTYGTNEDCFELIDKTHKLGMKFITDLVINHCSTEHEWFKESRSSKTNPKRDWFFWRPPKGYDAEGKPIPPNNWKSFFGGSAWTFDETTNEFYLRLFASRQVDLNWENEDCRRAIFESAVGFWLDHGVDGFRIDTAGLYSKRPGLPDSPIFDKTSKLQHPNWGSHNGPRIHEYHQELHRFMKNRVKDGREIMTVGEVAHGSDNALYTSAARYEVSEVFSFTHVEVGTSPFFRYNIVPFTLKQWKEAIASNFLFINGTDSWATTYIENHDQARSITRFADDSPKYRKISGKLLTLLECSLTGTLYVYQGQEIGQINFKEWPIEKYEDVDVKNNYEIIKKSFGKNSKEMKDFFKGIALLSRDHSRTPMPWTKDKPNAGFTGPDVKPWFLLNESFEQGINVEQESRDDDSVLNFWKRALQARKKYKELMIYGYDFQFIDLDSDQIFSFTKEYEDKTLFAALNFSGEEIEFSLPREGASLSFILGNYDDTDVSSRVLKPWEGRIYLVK
row,SMILES,IC50 (n = 3) against α-Glucosidase
1,"C[C@H]1[C@H](C)CC[C@]2(C(=O)O)CC[C@]3(C)C(=CC[C@@H]4[C@@]5(C)C[C@@H](O)[C@H](OC(=O)/C=C\c6ccc(O)cc6)C(C)(C)[C@@H]5CC[C@]43C)[C@H]12 (relative stereo) [Compound 5, 3β-O-cis-p-coumaroyl-2α-hydroxy-urs-12-en-28-oic acid]",1.54 ± 0.15 µg/mL
2,"C[C@H]1[C@H](C)CC[C@]2(C(=O)O)CC[C@]3(C)C(=CCC4[C@@]5(C)C[C@@H](O)[C@H](OC(=O)/C=C/c6ccc(O)cc6)C(C)(C)C5CC[C@]43C)[C@H]12 (relative stereo) [Compound 7, 3β-O-trans-p-coumaroyl-2α-hydroxy-urs-12-en-28-oic acid]",2.12 ± 0.15 µg/mL
3,"CC1(C)CCC2(C(=O)O)CCC3(C)C(=CCC4C5(C)CC(O)C(OC(=O)C=Cc6ccc(O)cc6)C(C)(C)C5CCC43C)C2C1 (stereo not drawn) [Compound 6, 3β-O-trans-p-coumaroyl-2α-hydroxy-olean-12-en-28-oic acid]",1.93 ± 0.14 µg/mL

# Continued, values first:
row,IC50 (n = 3) against α-Glucosidase,SMILES
1,no inhibition activity,"C[C@H]1[C@H](C)CC[C@]2(C(=O)O)CC[C@]3(C)C(=CC[C@@H]4[C@@]5(C)C[C@@H](O)[C@H](O)[C@@](C)(CO)[C@@H]5CC[C@]43C)[C@H]12 [Compound 1, asiatic acid]"
2,2.25 ± 0.28 µg/mL,"CC1(C)CCC2(C(=O)O)CCC3(C)C(=CCC4C5(C)CC(O)C(OC(=O)C=Cc6ccc(O)cc6)C(C)(C)C5CCC43C)C2C1 (stereo not drawn) [Compound 4, 3β-O-cis-p-coumaroyl-2α-hydroxy-olean-12-en-28-oic acid]"
